Results reported in ChEMBL document CHEMBL1142129, “Effect of carbapenem administration on establishment of intestinal colonization by vancomycin-resistant enterococci and Klebsiella pneumoniae in mice” (Antimicrob Agents Chemother, 2007).
In brackets after ≈: the same amount, converted by molar mass. Activity calls are given as the source filed them. The calls are words filed in the database; no cut-off is given here.

Tests used:
Enterococcus [1] = assay: Overgrowth of vancomycin-resistant enterococci growth in mouse intestine assessed in stool 2 days after 5 days treatment relative to saline; type: functional, organism-based
Klebsiella pneumoniae [2] = assay: Overgrowth of Klebsiella pneumonia growth in mouse intestine assessed in stool 2 days after 5 day treatment relative to saline; type: functional, organism-based
Enterococcus [3] = assay: Overgrowth of vancomycin-resistant enterococci growth in mouse intestine assessed in stool 2 days after […] treatment relative to saline; type: functional, organism-based
Enterococcus [4] = assay: Inhibition of growth in Vancomycin-resistant Enterococci C68 by mouse colonization study; type: functional
Klebsiella pneumoniae [5] = assay: Inhibition of growth in Klebsiella pneumoniae P62 by mouse colonization study; type: functional
Bacteroides sp. = assay: Inhibition of intestinal colonization of Bacteroides sp in mouse assessed in stool after 3 days relative to saline; type: functional, organism-based
Enterococcus [6] = assay: Overgrowth of enterococci in mouse intestine assessed in stool after 3 days; type: functional, organism-based
[7] = Drug level in mouse stool after 3 days; type: ADME, organism-based; conditions: read-out: Drug uptake
[8] = Drug level in mouse stool after 5 days; type: ADME, organism-based; conditions: read-out: Drug uptake

Compound	Activity (Enterococcus [1])	Activity (Klebsiella pneumoniae [2])	Activity (Enterococcus [3])	MIC (Enterococcus [4]) [µg/mL]	MIC (Klebsiella pneumoniae [5]) [µg/mL]	Activity (Bacteroides sp.)	Activity (Enterococcus [6])	concentration at 72 h [7] [ng/g]	concentration at 120 h [8] [ng/g]
CO/N=C(\C(=O)N[C@@H]1C(=O)N2C(C(=O)O)=C(CSc3nc(=O)c(O)nn3C)CS[C@H]12)c1csc(N)n1 [CEFTRIAXONE]	Active	Active	Active	> 10000	4 (≈ 7.21 µM)	Active	Active	–	–
CO/N=C(\C(=O)N[C@@H]1C(=O)N2C(C(=O)O)=C(CSc3nc(=O)c(=O)[nH]n3C)CS[C@H]12)c1csc(N)n1 [CEFTRIAXONE]	–	–	–	–	–	–	–	93800	–
C[C@@H](O)[C@H]1C(=O)N2C(C(=O)O)=C(S[C@@H]3CN[C@H](C(=O)Nc4cccc(C(=O)O)c4)C3)[C@H](C)[C@H]12 [ERTAPENEM]	inactive	inactive	–	> 1020	< 0.25	Active	Active	< 5000	10500
